Results on one compound are retold here after paper PMC3273346, “BPR1J-097, a novel FLT3 kinase inhibitor, exerts potent inhibitory activity against AML” (British Journal of Cancer, 2011).

In general, IC50 refers to the concentration at which inhibition is half-maximal.

One experiment concerns MOLM-13 cells. The experiment in a line: Cellular proliferation assay (MTS), MOLM-13. To be noted: Homo sapiens, AML-FLT3-ITD (heterozygous), 72 h, mean±s.d. of three experiments. The class given is cell-based. How it is done:
(§1) MOLM-13 cells were purchased from the Deutsche Sammlung von Microorganismen und Zellkulturen GmbH (Braunschweig, Germany). RS4;11, MV4-11, U937, and K562 cell lines were obtained from the American Type Culture Collection (ATCC, Manassas, VA, USA). […] HEK293T- and FLT3-transfected HEK293T cells were cultured in DMEM (Invitrogen) medium with 10% FBS.
(§2) Proliferation assays were performed by seeding 10 000 cells per well in a 96-well culture plate. […] Cell viability was quantitated using the MTS method (Promega) according to the manufacturer's recommended protocol. The results were determined by measuring absorbance at 490 nm using a plate reader (Victor2; Perkin-Elmer).

The test system of a further experiment is MV4-11 cells. In words: Cellular proliferation assay (MTS), MV4-11. The class given is cell-based. Particulars: Homo sapiens, AML-FLT3-ITD (homozygous), 72 h, mean±s.d. of three experiments. How it is done:
as §1, §2

In the next experiment the test system is U937 cells. The experiment in a line: Cellular proliferation assay (MTS), U937. Particulars: Homo sapiens, U-937, AML-FLT3-negative, 72 h, mean±s.d. of three experiments. The experiment is classed as cell-based. How it is done:
as §1, §2

For another experiment, the system named is RS4;11 cells. The experiment in a line: Cellular proliferation assay (MTS), RS4;11. The class given is cell-based. Particulars: Homo sapiens, RS4-11, 72 h, read-out: Proliferation GI50, RS4;11. How it is done: as §1, §2
Another experiment concerns K562 cells. The experiment in a line: Cellular proliferation assay (MTS), K562. The experiment is classed as cell-based. Particulars: Homo sapiens, CML-Bcr-Abl FLT3-negative, 72 h, mean±s.d. of three experiments. How it is done:
as §1, §2

Another experiment deals with FLT3-WT. The arrangement: method as in Shankar et al (2007). Particulars: previously reported; ref Shankar et al (2007); read-out: IC50 for inhibition of FLT3-WT; cited from earlier work.
Experiment [1] deals with MOLM-13 xenograft tumours. The arrangement: method as in Shankar et al, 2007. Particulars: ref Shankar et al, 2007; cited from earlier work.

Entries after “also recorded” stand apart in the source; their conditions may differ.

Consider `Cc1ccc(F)c(NC(=O)Nc2ccc(-c3cccc4[nH]nc(N)c34)cc2)c1` [ABT-869], for which the GI50 was 38 ± 14 nM in the experiment with MOLM-13 cells; 82 ± 17 nM in the experiment on MV4-11 cells; greater than 18000 nM in the experiment with U937 cells; 9200 ± 2700 nM with RS4;11 cells; greater than 20000 nM in the experiment on K562 cells. The half-inhibitory concentration (IC50) with FLT3-WT was 4 nM. In addition, the “Effect on MOLM-13 xenograft tumours” value in experiment [1] was “unable to shrink the MOLM-13 xenograft tumours; also recorded: not able to produce regressions of tumours”.
